From US12331054B2, “Perk inhibiting imidazolopyrazine compounds” (HiberCell, Inc., priority 2019, dated 2025)

Assays:
[1] = molecular target: Recombinant human EIF2AK3 (PERK) catalytic domain (amino acids 536-1116) (Homo sapiens (Human), UniProt Q9NZJ5); assay: PERK In Vitro Activity Assay (isolated), TR-FRET kinase assay; conditions: isolated PERK enzyme, 1.5 μM ATP, read-out: Biochemical IC50
Excerpt: PERK In Vitro Activity Assay (isolated):
In vitro Inhibition of PERK Enzyme Activity (isolated) Recombinant human EIF2AK2 (PKR) catalytic domain (amino acids 252-551), EIF2AK3 (PERK) catalytic domain (amino acids 536-1116), GFP-eIF2a substrate, and Terbium-labelled phospho-eIF2a antibody is obtained (Invitrogen, Carlsbad, CA).
Express and purify HIS-SUMO-GCN2 catalytic domain (amino acids 584-1019) from E. coli. Perform TR-FRET kinase assays in the absence or presence of inhibitors in a reaction buffer consisting of 50 mM HEPES, pH 7.5, 10 mM MgCb, 1.0 mM EGTA, and 0.01% Brij-35, and 100-200 nM GFP-eIF2a substrate. […] Add test compound, initiate the reaction by addition of enzyme, and incubate at room temperature for 45 minutes. Stop the reaction by addition of EDTA to a final concentration of 10 mM, add Terbium-labelled phospho-eIF2a antibody at a final concentration of 2 nM, and incubate for 90 minutes. Monitor the resulting fluorescence in an EnVison® Multilabel reader (PerkinElmer, Waltham, MA). Determine TR-FRET ratios and the resulting IC50 values using a 4-parameter nonlinear logistic equation as shown: Y=(A+((B−A)/(1+(C/x)AD)))) where, Y=% specific inhibition, A=Bottom of the curve, B=Top of the curve, C=absolute IC50 (concentration causing 50% inhibition), and D=hill slope.

[2] = test system: eIF2α in HEK293-EGFP-eIF2α cells; assay: PERK Cellular Assay (HEK293-EGFP-eIF2α cells, tunicamycin-induced ER stress, TR-FRET); type: cell-based; conditions: tunicamycin 2 hours
Experimental: Stable cell lines were created in HEK293 cells using lentiviral particles harboring an expression vector for GFP-eIF2α. Cells were selected using puromycin and enriched using fluorescence activated cell sorting against GFP. HEK293-EGFP-eIF2α cells were plated at 5000 cells/well in 384-well assay plates and incubated overnight at 37° C., 5% CO2. Inhibitor compounds were added to the wells by Echo acoustic dispensing and incubated for 30 minutes at 37° C., 5% CO2 prior to induction of ER stress by addition of tunicamycin to […] for 2 hours. Cells were lysed and TR-FRET was measured in an EnVision plate reader (PerkinElmer). FRET ratio data was normalized to signal from lysates treated with DMSO vehicle control and plotted as percent inhibition against 10-point; 3-fold dilution series of inhibitors. IC50 values were calculated using 4-parameter logistical fitting in XLFit.

Recombinant human EIF2AK3 (PERK) catalytic domain (amino acids 536-1116), sequence (Q9NZJ5 536-1116): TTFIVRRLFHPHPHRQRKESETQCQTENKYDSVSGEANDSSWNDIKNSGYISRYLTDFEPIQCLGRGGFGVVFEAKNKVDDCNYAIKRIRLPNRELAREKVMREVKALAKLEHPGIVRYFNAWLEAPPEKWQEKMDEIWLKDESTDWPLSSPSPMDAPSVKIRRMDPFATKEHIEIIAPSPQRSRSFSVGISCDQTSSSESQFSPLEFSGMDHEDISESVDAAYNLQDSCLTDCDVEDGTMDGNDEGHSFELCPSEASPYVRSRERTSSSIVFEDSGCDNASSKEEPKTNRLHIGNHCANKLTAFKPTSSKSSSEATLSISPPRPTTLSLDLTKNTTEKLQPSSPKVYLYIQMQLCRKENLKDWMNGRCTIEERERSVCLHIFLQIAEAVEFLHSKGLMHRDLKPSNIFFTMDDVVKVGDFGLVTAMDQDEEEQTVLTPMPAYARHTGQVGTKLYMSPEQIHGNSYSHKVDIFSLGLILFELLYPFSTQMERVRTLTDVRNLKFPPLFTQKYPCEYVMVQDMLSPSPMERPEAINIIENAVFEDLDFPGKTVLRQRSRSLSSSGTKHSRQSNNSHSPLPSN

SMILES	IC50 [1]	IC50 [2]
Cc1cc(NC(=O)C(O)c2cccc(F)c2)ccc1-c1nc(C)n2c(C)cnc(N)c12 (centres unmarked) [Example 9, N-(4-(8-amino-3,5-dimethylimidazo[1,5-a]pyrazin-1-yl)-3-methylphenyl)-2-(3-fluorophenyl)-2-hydroxyacetamide]	51 to 100 nM	251 to 500 nM
Cc1cn2c(C)nc(-c3ccc(NC(=O)C(O)c4cccc(F)c4)cc3C)c2c(N)n1 (single isomer, unassigned) [Example 4, N-(4-(8-amino-3,6-dimethylimidazo[1,5-a]pyrazin-1-yl)-3-methylphenyl)-2-(3-fluorophenyl)-2-hydroxyacetamide]	51 to 100 nM	251 to 500 nM
[2H]C([2H])([2H])c1nc(-c2ccc(NC(=O)C(O)c3cccc(C(F)(F)F)c3)nc2C)c2c(N)nc(C)cn12 (centres unmarked) [Example 177, N-[5-[8-amino-6-methyl-3-(trideuteriomethyl)imidazo[1,5-a]pyrazin-1-yl]-6-methyl-2-pyridyl]-2-hydroxy-2-[3-(trifluoromethyl)phenyl]acetamide]	101 to 250 nM	501 to 1000 nM
Cc1cnc(N)c2c(-c3ccc(NC(=O)C(O)c4cccc(F)c4)c(F)c3)nc(C)n12 (centres unmarked) [Example 125, N-(4-(8-amino-3,5-dimethyl-imidazo[1,5-a]pyrazin-1-yl)-2-fluorophenyl)-2-(3-fluorophenyl)-2-hydroxy-acetamide]	1 to 25 nM	1 to 25 nM
[2H]C([2H])([2H])c1nc(-c2ccc(NC(=O)C(O)c3cccc(Cl)c3)c(F)c2F)c2c(N)ncc(C(F)(F)F)n12 (centres unmarked) [Example 143, N-[4-[8-amino-3-(trideuteriomethyl)-5-(trifluoromethyl)imidazo[1,5-a]pyrazin-1-yl]-2,3-difluoro-phenyl]-2-(3-chlorophenyl)-2-hydroxy-acetamide]	251 to 500 nM	251 to 500 nM
[2H]C([2H])([2H])c1nc(-c2ccc(NC(=O)C(O)c3cccc(C(F)(F)F)c3)cc2C)c2c(N)ncc(Cl)n12 (centres unmarked) [Example 18, N-[4-[8-amino-5-chloro-3-(trideuteriomethyl)imidazo[1,5-a]pyrazin-1-yl]-3-methyl-phenyl]-2-hydroxy-2-[3-(trifluoromethyl)phenyl]acetamide]	1 to 25 nM	1 to 25 nM
Cc1cnc(N)c2c(-c3ccc(NC(=O)C(O)c4cccc(C(F)(F)F)c4)cc3F)nc(C)n12 (centres unmarked) [Example 93, N-(4-(8-amino-3,5-dimethylimidazo [1,5-a]pyrazin-1-yl)-3-fluoro-phenyl)-2-hydroxy-2-(3-(trifluoromethyl)phenyl)acetamide]	1 to 25 nM	51 to 100 nM
[2H]C([2H])([2H])c1nc(-c2ccc(NC(=O)C(O)c3cccc(C(F)(F)F)c3)cc2C)c2c(N)ncc(Cl)n12 (centres unmarked) [Example 19, N-[4-[8-amino-5-chloro-3-(trideuteriomethyl)imidazo[1,5-a]pyrazin-1-yl]-3-methyl-phenyl]-2-hydroxy-2-[3-(trifluoromethyl)phenyl]acetamide]	1 to 25 nM	26 to 50 nM
[2H]C([2H])([2H])c1nc(-c2ccc(NC(=O)C(O)c3cc(F)cc(F)c3)cc2C)c2c(N)ncc(C)n12 (centres unmarked) [Example 50, N-[4-[8-amino-5-methyl-3-(trideuteriomethyl)imidazo[1,5-a]pyrazin-1-yl]-3-methyl-phenyl]-2-(3,5-difluoro-phenyl)-2-hydroxy-acetamide]	1 to 25 nM	1 to 25 nM
[2H]C([2H])([2H])c1nc(-c2ccc(NC(=O)C(O)c3cc(F)cc(F)c3)cc2F)c2c(N)ncc(C)n12 (centres unmarked) [Example 105, N-[4-[8-amino-5-methyl-3-(trideuteriomethyl)imidazo[1,5-a]pyrazin-1-yl]-3-fluoro-phenyl]-2-(3,5-difluoro-phenyl)-2-hydroxy-acetamide]	1 to 25 nM	26 to 50 nM
[2H]C([2H])([2H])c1nc(-c2ccc(NC(=O)C(O)c3cc(F)cc(F)c3)cc2C)c2c(N)ncc(C(F)(F)F)n12 (centres unmarked) [Example 47, N-[4-[8-amino-3-(trideuteriomethyl)-5-(trifluoromethyl)imidazo[1,5-a]pyrazin-1-yl]-3-methyl-phenyl]-2-(3,5-difluoro-phenyl)-2-hydroxy-acetamide]	26 to 50 nM	101 to 250 nM

The next lines start with results.

IC50 [1]	SMILES	IC50 [2]
1 to 25 nM	[2H]C([2H])([2H])c1nc(-c2ccc(NC(=O)C(O)c3cc(F)cc(F)c3)cc2C)c2c(N)ncc(C(F)(F)F)n12 (centres unmarked) [Example 46, N-[4-[8-amino-3-(trideuteriomethyl)-5-(trifluoromethyl)imidazo[1,5-a]pyrazin-1-yl]-3-methyl-phenyl]-2-(3,5-difluoro-phenyl)-2-hydroxy-acetamide]	26 to 50 nM
1 to 25 nM	[2H]C([2H])([2H])c1nc(-c2ccc(NC(=O)C(O)c3cc(F)cc(F)c3)c(F)c2F)c2c(N)ncc(C)n12 (centres unmarked) [Example 154, N-[4-[8-amino-5-methyl-3-(trideuteriomethyl)imidazo[1,5-a]pyrazin-1-yl]-2,3-difluoro-phenyl]-2-(3,5-difluorophenyl)-2-hydroxy-acetamide]	1 to 25 nM
1 to 25 nM	[2H]C([2H])([2H])c1nc(-c2ccc(NC(=O)C(O)c3cccc(F)c3)cc2C)c2c(N)ncc(Cl)n12 (centres unmarked) [Example 33, N-[4-[8-amino-5-chloro-3-(trideuteriomethyl)imidazo[1,5-a]pyrazin-1-yl]-3-methyl-phenyl]-2-(3-fluorophenyl)-2-hydroxy-acetamide]	51 to 100 nM
1 to 25 nM	[2H]C([2H])([2H])c1nc(-c2ccc(NC(=O)C(O)c3cccc(F)c3)cc2C)c2c(N)ncc(Cl)n12 (centres unmarked) [Example 32, N-[4-[8-amino-5-chloro-3-(trideuteriomethyl)imidazo[1,5-a]pyrazin-1-yl]-3-methyl-phenyl]-2-(3-fluorophenyl)-2-hydroxy-acetamide]	1 to 25 nM
1 to 25 nM	[2H]C([2H])([2H])c1nc(-c2ccc(NC(=O)C(O)c3cc(F)cc(C(F)(F)F)c3)cc2F)c2c(N)ncc(Cl)n12 (centres unmarked) [Example 114, N-[4-[8-amino-5-chloro-3-(trideuteriomethyl)imidazo[1,5-a]pyrazin-1-yl]-3-fluoro-phenyl]-2-[3-fluoro-5-(trifluoromethyl)phenyl]-2-hydroxy-acetamide]	1 to 25 nM
1 to 25 nM	Cc1cc(NC(=O)C(O)c2cccc(F)c2)ccc1-c1nc(C)n2c(C(F)(F)F)cnc(N)c12 (centres unmarked) [Example 26, N-(4-(8-amino-3-methyl-5-(trifluoromethyl)imidazo[1,5-a]pyrazin-1-yl)-3-methylphenyl)-2-(3-fluorophenyl)-2-hydroxyacetamide]	26 to 50 nM
1 to 25 nM	[2H]C([2H])([2H])c1nc(-c2ccc(NC(=O)C(O)c3cccc(Cl)c3)c(F)c2F)c2c(N)ncc(C(F)(F)F)n12 (centres unmarked) [Example 142, N-[4-[8-amino-3-(trideuteriomethyl)-5-(trifluoromethyl)imidazo[1,5-a]pyrazin-1-yl]-2,3-difluoro-phenyl]-2-(3-chlorophenyl)-2-hydroxy-acetamide]	1 to 25 nM
1 to 25 nM	[2H]C([2H])([2H])c1nc(-c2cnc(NC(=O)C(O)c3cccc(F)c3)cc2C)c2c(N)ncc(C)n12 (centres unmarked) [Example 181, N-[5-[8-amino-5-methyl-3-(trideuteriomethyl)imidazo[1,5-a]pyrazin-1-yl]-4-methyl-2-pyridyl]-2-(3-fluorophenyl)-2-hydroxy-acetamide]	26 to 50 nM
